Assay results taken from patent US7501281B2, “Compositions, methods and kits related to thrombin, Notch signaling and stamatogenesis and growth of stem cells” (Maine Medical Center Research Institute, priority 2003, dated 2009).

Assays:
Delta1 = target: T1, Delta1 (Homo sapiens, UniProt O00548); test: Thrombin cleavage of in vitro translation product of Delta1; type: biochemical
T1 construct: made in house
T1 sequence (O00548 18-723): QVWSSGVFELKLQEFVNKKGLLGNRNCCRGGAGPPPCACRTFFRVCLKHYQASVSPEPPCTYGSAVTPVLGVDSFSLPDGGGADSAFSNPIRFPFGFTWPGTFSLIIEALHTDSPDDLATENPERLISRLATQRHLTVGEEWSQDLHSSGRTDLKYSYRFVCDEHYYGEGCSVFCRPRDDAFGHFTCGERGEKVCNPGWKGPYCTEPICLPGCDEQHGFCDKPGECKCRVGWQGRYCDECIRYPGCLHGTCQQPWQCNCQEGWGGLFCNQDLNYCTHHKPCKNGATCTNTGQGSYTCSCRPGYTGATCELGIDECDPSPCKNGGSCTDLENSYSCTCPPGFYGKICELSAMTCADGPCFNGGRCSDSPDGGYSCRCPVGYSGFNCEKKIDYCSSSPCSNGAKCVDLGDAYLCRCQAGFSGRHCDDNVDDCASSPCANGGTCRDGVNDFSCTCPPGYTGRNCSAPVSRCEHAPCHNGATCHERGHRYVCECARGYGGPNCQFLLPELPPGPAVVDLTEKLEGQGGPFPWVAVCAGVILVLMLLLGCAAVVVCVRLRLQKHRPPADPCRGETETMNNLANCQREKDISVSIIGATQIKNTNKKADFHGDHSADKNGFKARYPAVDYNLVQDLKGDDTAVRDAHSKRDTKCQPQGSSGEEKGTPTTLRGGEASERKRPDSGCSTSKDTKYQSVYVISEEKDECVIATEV

[1] = system: FGF1 transcript in NIH 3T3 and Swiss 3T3 cells; test: Nuclear run-on analysis of FGF1 transcription; type: cell-based, murine
Protocol: Approximately either 1×10^7 Swiss or NIH 3T3 cells were harvested and washed using ice-cold 50 mM sodium phosphate buffer, pH 7.0 containing 15 mM NaCl. Cell pellets were lysed in 4 ml of ice-cold 10 mM Tris-HCl, pH 7.5, containing 3 mM CaCl2, 3 mM MgCl2, 10 mM NaCl, and 0.5% NP-40. The nuclear pellet was resuspended in glycerol storage buffer (50 mM Tris-HCl, pH 8.3 containing 40% glycerol, 5 mM MgCl2 and 0.1 mM EDTA), the nuclei were snap frozen, and stored in liquid nitrogen. For run-on transcription, 200 μl aliquots of the frozen nuclei were added to 200 μl of reaction buffer (10 mM Tris-HCl, pH 8.3 containing 5 mM MgCl2, 300 mM KCl, 5 mM DTT, 1 mM each of ATP, CTP, and GTP, 40 units of RNase inhibitor and 100 μCi of [^32P]UTP (800 Ci/mmol; Amersham), and incubated at 30° C. for 30 minutes. The mixture was treated with 100 units of RNase-free DNase I for 30 minutes at 30° C. and then incubated with 400 μl of 20 mM Tris-HCl, pH 7.5, containing 2% SDS, 10 mM EDTA, […] proteinase K for 30 minutes at 42° C. Following phenol/CHCl3 extraction, the labelled transcripts were precipitated with isopropanol and dissolved in 50 μl of 10 mM TES, pH 7.5, containing 10 mM EDTA and 0.2% SDS. Linearized plasmid constructs (0.4 μg/dot) containing either the fgfl or gapdh cDNA were alkali denatured and immobilized onto a Hybond-N^+ membrane (Amersham). Hybridization was performed in 1 ml of ULTRA Hyb (Ambion), with 5×10^6 cpm of radiolabeled RNA and yeast RNA (10 μg/ml) for 18 hours with shaking at 50° C. Membranes were washed twice with washing buffer (2×SSC containing 0.1% SDS) at 50° C. and analyzed using a phosphoimager (Molecular Dynamics).

[2] = system: Swiss 3T3 cells expressing a dominant-negative FGFR1 mutant; test: DNA synthesis assay, (3H)-thymidine autoradiography; type: cell-based, murine; conditions: 10 μg/ml α-thrombin
Protocol: A combination of (^3H)-thymidine autoradiography and immunohistochemistry was used to evaluate the levels of DNA synthesis in Swiss 3T3 cells expressing a dominant-negative FGFR1 mutant. Swiss 3T3 cells were plated at 50% confluency on glass coverslips precoated with fibronectin (10 μg/cm^2) for 24 hours. The cells were transfected with the pCS2 vector expressing a dominant-negative X. laevis FGFR1 deletion mutant lacking the FGFR1 intracellular domain (a gift from Dr. R. Friesel) using the Fugene 6 reagent (Roche). After 24 hours, the medium was changed to DMEM containing 0.25% BCS and following a 48 hour incubation in low BCS, the cells were stimulated with either 10 μg/ml of α-thrombin, 10% BCS or 10 ng/ml of recombinant FGF1 plus 10 units/ml of heparin. After stimulation for 24 hours, (^3H)-thymidine (NEN; 1 μCi/ml) was added to the medium and cells were incubated for 12 hours and fixed with 4% neutral formaldehyde. […] The percentage of (^3H)-labeled nuclei among the dnFGFR1-positive and dnFGFR1-negative cells was quantitated using an inverted Olympus microscope.
Thus, a dominant-negative (dn) FGFR1 construct was expressed in Swiss 3T3 cells and their proliferative index measured in the presence and absence of exogenous thrombin.

Thrombin
proteolytic modification of Delta1 translation product (Delta1): unable to proteolytically modify
induction of FGF1 transcript ([1]; 10 μg/ml α-thrombin or 5 μM TRAP): able to induce
time at which FGF1 mRNA was initially detected ([1]; after addition of thrombin): 15 min
time to plateau of FGF1 mRNA ([1]; after addition of thrombin): ≤ 2 h
DNA synthesis frequency with dnFGFR1 expression [2]: level consistent with a quiescent cellular phenotype
